Experiment [1] deals with FGFR2 (Homo sapiens (Human), UniProt P21802). Nature of the experiment: FGFR2 Biochemical Caliper Assay. How it is done:
Compounds of the present invention were also tested in a FGFR2 Biochemical Caliper Assay. Compounds were prepared in 10 mM DMSO solution and serially diluted into 11 concentrations by 3-fold dilution. […] 5 uL of ATP solution (100 uM) was added to start the reaction and the plate was incubated for 90 minutes, then 70 uL of stopping buffer (0.5M EDTA) was added to terminate the reaction. Each well was analyzed using EZ reader.

Experiment [2] deals with SNU16 cells. Put plainly: SNU16 Cancer Cell Line Proliferation Assay. Type of experiment: cell-based. To be noted: Homo sapiens; SNU-16 cells. A digest of the protocol:
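SNU16 cells were seeded, held 24 h at 37 degrees, then dosed with an 11-point 3-fold dilution series prepared from a 10 mM DMSO stock. After 96 h incubation, viability was read by CellTiter Glo luminescence.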

Sequence of FGFR2 (P21802 22-821): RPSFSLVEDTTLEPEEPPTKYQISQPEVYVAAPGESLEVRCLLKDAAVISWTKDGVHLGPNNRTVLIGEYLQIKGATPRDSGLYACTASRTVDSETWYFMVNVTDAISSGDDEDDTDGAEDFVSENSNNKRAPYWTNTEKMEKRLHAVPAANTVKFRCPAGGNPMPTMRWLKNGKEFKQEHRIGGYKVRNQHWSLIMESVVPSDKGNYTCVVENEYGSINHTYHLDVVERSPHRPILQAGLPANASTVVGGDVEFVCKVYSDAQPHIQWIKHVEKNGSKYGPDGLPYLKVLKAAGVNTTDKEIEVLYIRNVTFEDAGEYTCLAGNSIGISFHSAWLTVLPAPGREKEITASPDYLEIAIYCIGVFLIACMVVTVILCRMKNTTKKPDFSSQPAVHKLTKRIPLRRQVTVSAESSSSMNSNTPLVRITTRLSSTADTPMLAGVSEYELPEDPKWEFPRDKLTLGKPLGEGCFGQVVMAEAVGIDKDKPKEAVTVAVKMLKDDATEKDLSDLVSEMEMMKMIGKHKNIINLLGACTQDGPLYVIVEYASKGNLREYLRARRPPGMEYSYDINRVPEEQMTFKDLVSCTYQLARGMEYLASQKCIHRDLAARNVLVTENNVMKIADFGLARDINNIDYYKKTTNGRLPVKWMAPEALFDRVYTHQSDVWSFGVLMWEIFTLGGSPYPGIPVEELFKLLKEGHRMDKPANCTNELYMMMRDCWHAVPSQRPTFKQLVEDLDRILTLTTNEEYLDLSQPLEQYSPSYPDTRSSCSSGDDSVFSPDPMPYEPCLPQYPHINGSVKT

Take `C=C(C)C(=O)Nc1ccc(-c2c(-c3ccc(C(=O)N(C)CC4(C#N)CC4)cc3)c3c(N)ncnc3n2C)c(F)c1` [Example 465]: the figures for the half-inhibitory concentration (IC50) in experiment [1] and in experiment [2] were less than 100 nM and not above 100 nM, respectively.
Taken in the same sequence, the figures for `C=CC(=O)N1CCC(n2nc(-c3c(-c4ccc(Oc5cccc(C)n5)c(OC)c4)c4c(N)ncnc4n3C)cc2C)CC1` [Example 684] were 1000 to 100000 nM and 1000 to 100000 nM.
With `C=C(C)C(=O)Nc1ccc(-c2c(-c3ccc(C(=O)NCC4CCC4)cc3)c3c(N)ncnc3n2C)cc1` [Example 381], the results for the IC50 in experiment [1] and in experiment [2] were less than 100 nM and not above 100 nM, respectively.
Taken in the same sequence, the figures for `C=C(C)C(=O)Nc1ccc(-c2c(-c3ccc(C(=O)NC4C5COCC54)cc3)c3c(N)ncnc3n2C)cc1` (stereo not drawn) [Example 352] were 250 to 1000 nM and 250 to 1000 nM.
Taken in the same sequence, the figures for `C=C(C)C(=O)Nc1ccc(-c2c(-c3ccc(S(=O)(=O)CC4CCCC4)cc3)c3c(N)ncnc3n2C)cc1` [Example 314] were 250 to 1000 nM and 250 to 1000 nM.
The corresponding values for `C=CC(=O)N1CCC(c2c(-c3ccc(C(=O)Nc4ccccn4)cc3)c3c(N)ncnc3n2C)C1` (stereo not drawn) [Example 725] are less than 100 nM and 100 to 250 nM.
For the compound `C=CC(=O)N1CC[C@H](c2c(-c3ccc(Oc4cccc(C)n4)cc3)c3c(N)ncnc3n2C)C1` (single isomer, unassigned) [Example 712], the 50% inhibitory concentration (IC50) in experiment [1] was less than 100 nM; in experiment [2] it was not above 100 nM.
`C=C(C)C(=O)Nc1ccc(-c2c(-c3ccc(S(=O)(=O)NCC(C)(C)O)cc3)c3c(N)ncnc3n2C)cc1` [Example 310]: the figures for the IC50 in experiment [1] and in experiment [2] were 1000 to 100000 nM and 250 to 1000 nM, respectively.
The corresponding values for `C=C(C)C(=O)Nc1ccc(-c2c(C3=CC[C@H](Oc4cccc(C)n4)CC3)c3c(N)ncnc3n2C)cc1` (single isomer, unassigned) [Example 452] are 1000 to 100000 nM and 250 to 1000 nM.
The corresponding values for `C=CC(=O)N1CC=C(c2c(-c3ccc(Oc4cccc(C)n4)cc3)c3c(N)ncnc3n2C)C1` [Example 666] are less than 100 nM and not above 100 nM.
Taken in the same sequence, the figures for `C=C(C)C(=O)Nc1ccc(-c2c(-c3ccc(C(=O)N(C)CC(C)(C)O)cc3)c3c(N)ncnc3n2C)cc1` [Example 368] were 250 to 1000 nM and 250 to 1000 nM.
As for `C=C(C)C(=O)Nc1ccc(-c2c(-c3ccc(Oc4nccc(C)n4)c(F)c3)c3c(N)ncnc3n2C)c(C)c1` [Example 529], the IC50 in experiment [1] is less than 100 nM; in experiment [2] it was not above 100 nM.
Turning to `C=C(C)C(=O)Nc1ccc(-c2c(-c3ccc(C(=O)N4CCC(O)C4)cc3)c3c(N)ncnc3n2C)cc1` (stereo not drawn) [Example 157], the IC50 in experiment [1] and in experiment [2] was 250 to 1000 nM in each case.
Consider `C=CC(=O)N1CCC(c2c(-c3cnn(CC4CCN(C(C)=O)CC4)c3)c3c(N)ncnc3n2C)C1` (stereo not drawn) [Example 780], for which the IC50 in experiment [1] and in experiment [2] was 250 to 1000 nM each time.
With `C=C(C)C(=O)Nc1ccc(-c2c(-c3ccc(NC(=O)C4CCCC4)cc3)c3c(N)ncnc3n2C)cc1` [Example 224], the half-maximal inhibitory concentration (IC50) in experiment [1] is less than 100 nM; in experiment [2], not above 100 nM.
In the case of `C=C(C)C(=O)Nc1ccc(-c2c(C3=CC[C@@H](Oc4cccc(C)n4)CC3)c3c(N)ncnc3n2C)cc1` (single isomer, unassigned) [Example 451], the IC50 in experiment [1] is 250 to 1000 nM; in experiment [2] it was not above 100 nM.
Regarding `C=C(CN(C)C)C(=O)Nc1ccc(-c2c(-c3ccc(C(=O)N4CCCC4)cc3)c3c(N)ncnc3n2C)cc1` [Example 522], the concentration for half-maximal inhibition (IC50) in experiment [1] is less than 100 nM; in experiment [2], not above 100 nM.
Taken in the same sequence, the figures for `C=C(C)C(=O)N1CCC(c2c(-c3ccc(Oc4cccc(C)n4)cc3)c3c(N)ncnc3n2C)C1` (stereo not drawn) [Example 691] were 250 to 1000 nM and 1000 to 100000 nM.
The corresponding values for `C=C(C)C(=O)Nc1ccc(-c2c(-c3ccc(C(=O)Nc4ncccn4)cc3)c3c(N)ncnc3n2C)cc1` [Example 257] are 250 to 1000 nM and 250 to 1000 nM.
For `C=C(C)C(=O)Nc1ccc(-c2c(-c3ccc(Oc4nccc(C)n4)c(F)c3)c3c(N)ncnc3n2C)c(OC)c1` [Example 502], the IC50 in experiment [1] was less than 100 nM; in experiment [2], not above 100 nM.
The corresponding values for `C=C(C)C(=O)Nc1ccc(-c2c(-c3ccc(Oc4nccc(C)n4)c(OC)c3)c3c(N)ncnc3n2C)c(F)c1` [Example 444] are less than 100 nM and not above 100 nM.
Taken in the same sequence, the figures for `C=CC(=O)Nc1ccc(-c2c(-c3ccc(Oc4ccc(C)c(C)n4)c(OC)c3)c3c(N)ncnc3n2C)cc1` [Example 45] were less than 100 nM and not above 100 nM.
Taken in the same sequence, the figures for `C=CC(=O)N1CCC(c2c(-c3ccc(OCC4CC4)cc3)c3c(N)ncnc3n2C)C1` (stereo not drawn) [Example 734] were 100 to 250 nM and not above 100 nM.
As for `C=C(C)C(=O)Nc1ccc(-c2c(-c3ccc(C(=C)N[C@H]4CCOC4)cc3)c3c(N)ncnc3n2C)cc1` [Example 335], the IC50 in experiment [1] and in experiment [2] was 250 to 1000 nM each time.
With `C=C(C)C(=O)Nc1ccc(-c2cn3ncnc(N)c3c2-c2ccc(Oc3cccc(C)n3)cc2)cc1` [Example 795], the 50% inhibitory concentration (IC50) in experiment [1] and in experiment [2] was 1000 to 100000 nM throughout.
In the case of `C[C@@H](Cl)C(=O)Nc1ccc(-c2c(-c3ccc(C(=O)N4CCCC4)cc3)c3c(N)ncnc3n2C)cc1` (single isomer, unassigned) [Example 559], the IC50 in experiment [1] and in experiment [2] was 250 to 1000 nM throughout.
On to `C=C(C)C(=O)Nc1ccc(-c2c(-c3ccc(Oc4nccc(C)n4)c(C#N)c3)c3c(N)ncnc3n2C)cc1` [Example 508], for which the IC50 in experiment [1] was less than 100 nM; in experiment [2], not above 100 nM.
Taken in the same sequence, the figures for `C=CC(=O)N1CC[C@@H](c2c(-c3ccc(Oc4ncccn4)cc3)c3c(N)ncnc3n2CCN2CCOCC2)C1` [Example 740] were 1000 to 100000 nM and 1000 to 100000 nM.
As for `C=CC(=O)N1CCC(c2c(-c3ccc(Oc4ncccn4)cc3)c3c(N)ncnc3n2C)C1` (stereo not drawn) [Example 682], the IC50 is 100 to 250 nM in experiment [1] and not above 100 nM in experiment [2].
Taken in the same sequence, the figures for `C=C(C)C(=O)Nc1ccc(-c2c(-c3ccc(Oc4nccc(C)n4)cc3F)c3c(N)ncnc3n2C)cc1` [Example 425] were less than 100 nM and not above 100 nM.
Taken in the same sequence, the figures for `C=C(C)C(=O)Nc1ccc(-c2c(-c3ccc(Oc4nccc(C)n4)cc3)c3c(N)ncnc3n2C)cc1` [Example 382] were less than 100 nM and not above 100 nM.
Taken in the same sequence, the figures for `C=C(C)C(=O)Nc1ccc(-c2c(-c3ccc(C(=O)N4CCCCC4)cc3)c3c(N)ncnc3n2C)cc1` [Example 141] were less than 100 nM and not above 100 nM.
In the case of `C=C(C)C(=O)Nc1ccc(-c2c(-c3ccc(Oc4ncc(F)cn4)c(C)c3)c3c(N)ncnc3n2C)c(F)c1` [Example 424], the IC50 in experiment [1] is less than 100 nM; in experiment [2], not above 100 nM.
The corresponding values for `C=C(C)C(=O)Nc1ccc(-c2c(-c3ccc(N4CCNC4=O)cc3)c3c(N)ncnc3n2C)cc1` [Example 194] are 250 to 1000 nM and 250 to 1000 nM.
Taken in the same sequence, the figures for `C=C(C)C(=O)Nc1ccc(-c2c(-c3ccc(S(=O)(=O)NC4CCCC4OC)cc3)c3c(N)ncnc3n2C)cc1` (stereo not drawn) [Example 318] were 1000 to 100000 nM and 250 to 1000 nM.
Take `C=C(C)C(=O)Nc1ccc(-c2c(-c3cc(F)c(Oc4ncccn4)c(Cl)c3)c3c(N)ncnc3n2C)cc1` [Example 94]: the IC50 in experiment [1] is less than 100 nM; in experiment [2], not above 100 nM.
For `C=CC(=O)N1CCC(c2c(-c3ccc(CN4CCOCC4=O)cc3)c3c(N)ncnc3n2C)C1` (stereo not drawn) [Example 789], the IC50 in experiment [1] and in experiment [2] was 1000 to 100000 nM in each case.
As for `C=C(C)C(=O)Nc1ccc(-c2c(-c3ccc(C(=O)NCC4CCC4)c(OC)c3)c3c(N)ncnc3n2C)cc1` [Example 391], the IC50 in experiment [1] was less than 100 nM; in experiment [2], not above 100 nM.
Turning to `C=C(C)C(=O)Nc1ccc(-c2c(-c3ccc(Cn4cc(C)cn4)cc3)c3c(N)ncnc3n2C)cc1` [Example 263], the IC50 in experiment [1] is 1000 to 100000 nM; in experiment [2], 250 to 1000 nM.
Taken in the same sequence, the figures for `C=C(C)C(=O)Nc1ccc(-c2c(-c3ccc(Oc4nccc(C)n4)c(Cl)c3)c3c(N)ncnc3n2C)cc1` [Example 505] were less than 100 nM and not above 100 nM.
Taken in the same sequence, the figures for `C=C(C)C(=O)Nc1ccc(-c2c(-c3ccc(C(=O)N4CC5CCC(C5)C4)cc3)c3c(N)ncnc3n2C)cc1` [Example 299] were less than 100 nM and not above 100 nM.
With `C=CC(=O)N1CCC(c2c(-c3ccn(Cc4ccccc4)c(=O)c3)c3c(N)ncnc3n2C)C1` (stereo not drawn) [Example 792], the half-inhibitory concentration (IC50) in experiment [1] and in experiment [2] was 100 to 250 nM each time.
As to `C=CC(=O)N1CCC(c2[nH]c3ncnc(N)c3c2-c2ccc(C(=O)N3CCCC3)cc2)C1` (stereo not drawn) [Example 746], the IC50 in experiment [1] was less than 100 nM; in experiment [2], 250 to 1000 nM.
As to `C=C(C)C(=O)Nc1ccc(-c2c(-c3ccc(C(=O)N4CC(C)C4)cc3)c3c(N)ncnc3n2C)cc1` [Example 135], the IC50 in experiment [1] fell in the range of 250 to 1000 nM; in experiment [2] it was 100 to 250 nM.
The corresponding values for `C=CC(=O)Nc1ccc(-c2c(-c3ccc(Oc4ncc(Cl)cn4)c(OC)c3)c3c(N)ncnc3n2C)cc1` [Example 78] are less than 100 nM and not above 100 nM.
For `C=CC(=O)N1CCC(c2c(-c3ccc(Oc4ccc(Cl)c(C)n4)cc3)c3c(N)ncnc3n2C)C1` (stereo not drawn) [Example 745], the IC50 in experiment [1] and in experiment [2] was 1000 to 100000 nM each time.
Turning to `C=CC(=O)N1CCC(c2c(-c3ccc(OC4CNC4)cc3)c3c(N)ncnc3n2C)C1` (stereo not drawn) [Example 782], the half-inhibitory concentration (IC50) in experiment [1] and in experiment [2] was 1000 to 100000 nM throughout.
As for `C=C(CN1CCOCC1)C(=O)N1CCC(n2cc(-c3c(-c4ccc(Oc5cccc(C)n5)cc4)c4c(N)ncnc4n3C)cn2)CC1` [Example 643], the IC50 in experiment [1] and in experiment [2] was 250 to 1000 nM throughout.

The term IC50 denotes the concentration that inhibits the measured activity by half.
